The values below are quoted from earlier work in patent publication US20160001001A1 (priority 2013, published 2016).

The structures appear in SMILES notation.

For the series the following is noted: in vivo.

For `CN1CC[C@]23c4c5ccc(O)c4O[C@H]2[C@@H](O)C=C[C@H]3[C@H]1C5` [Morphine], the Onset time was 8 min and the “Time elapsing until the maximum analgesic effect is reached” value is 25 min.
